From US12037324B2, “Biarylmethyl heterocycles” (Université de Montréal, priority 2016, dated 2024)

Assays:
Type in all cases: cell-based
[1] = molecular target: T1, AGTR1 (Homo sapiens, UniProt P30556); assay: DiscoveRx β-arrestin2 recruitment assay (enzyme complementation, Pathunter CHO-K1 AGTR1 β-arrestin cell line); conditions: DiscoveRx β-arrestin2 recruitment; for DiscoveRx β-arrestin2 Ymax (%): maximal response
T1 construct: host or cells: Pathunter CHO-K1 AGTR1 β-arrestin cell line (CHO-K1)
T1 sequence (P30556 1-359): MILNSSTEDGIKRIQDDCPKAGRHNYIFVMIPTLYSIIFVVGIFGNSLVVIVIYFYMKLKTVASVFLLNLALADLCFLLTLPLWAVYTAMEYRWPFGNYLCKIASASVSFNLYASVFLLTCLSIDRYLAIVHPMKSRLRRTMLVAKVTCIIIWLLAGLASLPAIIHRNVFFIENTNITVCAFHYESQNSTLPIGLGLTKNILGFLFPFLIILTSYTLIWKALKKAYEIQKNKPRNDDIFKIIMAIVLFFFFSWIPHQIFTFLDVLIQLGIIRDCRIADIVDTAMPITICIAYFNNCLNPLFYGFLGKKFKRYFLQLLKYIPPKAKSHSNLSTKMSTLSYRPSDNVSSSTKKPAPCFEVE
Experimental: In one aspect of the invention, signaling bias of compounds was assessed by comparing the relative activity of compounds to activate both the β-arrestin and Gq signaling pathways. In order to confirm signaling bias, compounds were studied in two different assay formats. DiscoveRx β-arrestin2 Recruitment and IP1 Assays β-arrestin2 recruitment to activated receptors can be assessed using an enzyme complementation method (Zhao, Jones et al. 2008). […] Cells (5000/well) were plated into 1536 well plates (Cellocoat plates, Greiner Bio One, Monroe, NC) 14-16 hours before each experiment in 20 μl DMEM/F12 medium (Thermo-Fisher Scientific, Carlsbad, CA) containing heat-inactivated 1% fetal bovine serum. Subsequently, the compounds of interest were added at varying concentrations to the wells in a volume of 200 nl and the cells incubated for 90 min at 37° C. The detection reagent (10 μl) was added to each well and the plates incubated at room temperature for 1 hour before measurement of chemiluminescence using an EnVision Multilabel Reader (Perkin-Elmer, Waltham, MA). The data are processed using Toolset for Runmaster QCMulti. Concentration-response curves are fitted and EC50s (agonist mode) and IC50s (antagonist mode) estimated using a 4-parameter logistic equation. Compound activities are reported as a relative percentage to the maximal effect of All in the assays.

[2] = molecular target: T1, AGTR1; assay: DiscoveRx IP1 accumulation assay (HTRF), agonist mode, Pathunter CHO-K1 AGTR1 β-arrestin cell line; conditions: for EC50: read-out: IP-1 EC50
Experimental: In one aspect of the invention, signaling bias of compounds was assessed by comparing the relative activity of compounds to activate both the β-arrestin and Gq signaling pathways. In order to confirm signaling bias, compounds were studied in two different assay formats.
DiscoveRx β-arrestin2 Recruitment and IP1 Assays
Gq activation can be assessed by measuring the accumulation of inositol phosphates (e.g. IP3, IP1) that are liberated following activation of phospholipase C by Gq (Thomsen, Frazer et al. 2005). In the current invention we have utilized the DiscoveRx Pathunter CHO-K1 AGTR1 β-arrestin cell line to also measure IP1 accumulation in response to compounds. IP1 accumulation was measured in both agonist and antagonist modes. In agonist mode, cells are plated as above 14-16 hours before the experiment. The medium is then removed and compounds at varying concentrations added in a final volume of 20 μl. The cells are incubated at 37° C. for 90 min. IP1 accumulation detected using a commercial HTRF assay according to manufacturer's instructions (Cisbio, Bedford, MA). Specifically, 4 μl of D2-conjugate solution (diluted 1:20 in Cisbio HTRF assay buffer) is added to each well, followed by the addition of 4 μl of anti-IP1 cryptate diluted 1:20 in HTRF assay buffer and the plates incubated for 20 min at room temperature. 14 μl from each well is measured using an Envision multi-label reader and data processed using Toolset for Runmaster QCMulti. Concentration-response curves are fitted and EC50s (agonist mode) and IC50s (antagonist mode) estimated using a 4-parameter logistic equation. Compound activities are reported as a relative percentage to the maximal effect of All in the assays.

[3] = molecular target: T2, hAT1R (Homo sapiens, UniProt P30556); assay: BRET β-arrestin2 biosensor assay, higher receptor expression (hAT1R 5 ng/well), HEK293 cells; conditions: for EC50: High AT1R Expression
T2 sequence (P30556 1-359): T1 sequence (P30556 1-359)

Question: How did the EC50 [1] turn out when `CCc1nc2c(C)cc(C)nc2n1Cc1ccc(-c2cc(C3CCCO3)ccc2-c2nn[nH]n2)cc1` (single isomer, unassigned) [Example 74, 2-ethyl-5,7-dimethyl-3-((5′-(tetrahydrofuran-2-yl)-2′-(2H-tetrazol-5-yl)-[1,1′-biphenyl]-4-yl)methyl)-3H-imidazo[4,5-b]pyridine] was run?
Answer: 391 nM

Question: What about the “DiscoveRx β-arrestin2 Ymax (%)” value [1] of the same compound?
Answer: 3.9%

Question: What about the EC50 [2] of the same compound?
Answer: > 100000 nM

Question: And the “BRET β-Arrestin2 High AT1R Expression Ymax (%)” value [3]?
Answer: 3.2%

Question: What about the EC50 [3] of the same compound?
Answer: > 100000 nM

Question: What does the source list for `CCc1nc2c(C)cc(C)nc2n1Cc1ccc(-c2cc(C3CCCCN3)ccc2-c2nn[nH]n2)cc1` (single isomer, unassigned) [Example 75, 2-ethyl-5,7-dimethyl-3-((5′-(piperidin-2-yl)-2′-(2H-tetrazol-5-yl)-[1,1′-biphenyl]-4-yl)methyl)-3H-imidazo[4,5-b]pyridine]?
Answer: EC50 [1]: 543 nM; DiscoveRx β-arrestin2 Ymax (%) [1]: 7.1%; EC50 [2]: > 100000 nM; BRET β-Arrestin2 High AT1R Expression Ymax (%) [3]: 53.9%; EC50 [3]: 1120 nM

Question: `CCc1nc2c(C)cc(C)nc2n1Cc1ccc(-c2cc(-c3ccc(OC(F)(F)F)cc3)ccc2-c2nn[nH]n2)cc1` [Example 6] was tested. Which EC50 [1] did it give?
Answer: 14.1 nM

Question: And the “DiscoveRx β-arrestin2 Ymax (%)” value [1]?
Answer: 27.0%

Question: What about the “IP-1 Ymax (%)” value [2] of the same compound?
Answer: 4.9%

Question: And the EC50 [2]?
Answer: 14.6 nM

Question: What about the “BRET β-Arrestin2 High AT1R Expression Ymax (%)” value [3] of the same compound?
Answer: 73.5%

Question: And the EC50 [3]?
Answer: 51 nM

Question: `CCc1nc2c(C)cc(C)nc2n1Cc1ccc(-c2cc(-c3ccc(C(F)(F)F)cc3)ccc2-c2nn[nH]n2)cc1` [Example 7] was tested. Which EC50 [1] did it give?
Answer: 14.4 nM

Question: What about the “DiscoveRx β-arrestin2 Ymax (%)” value [1] of the same compound?
Answer: 21.6%

Question: And the “IP-1 Ymax (%)” value [2]?
Answer: 9.2%

Question: And the EC50 [2]?
Answer: 83.9 nM

Question: And the “BRET β-Arrestin2 High AT1R Expression Ymax (%)” value [3]?
Answer: 60.0%

Question: And the EC50 [3]?
Answer: 37.4 nM

Question: Which results are given for `CCc1nc2c(C)cc(C)nc2n1Cc1ccc(-c2cc(N3CCC[C@@H](C)C3)ccc2-c2nn[nH]n2)cc1` [Example 86]?
Answer: EC50 [1]: 159 nM; DiscoveRx β-arrestin2 Ymax (%) [1]: 38.0%; EC50 [2]: > 100000 nM

Question: With `CCc1nc2c(C)cc(C)nc2n1Cc1ccc(-c2cc(N3CCC[C@H](C)C3)ccc2-c2nn[nH]n2)cc1` [Example 88] as the compound, how does the EC50 [1] read?
Answer: 8.1 nM

Question: What about the “DiscoveRx β-arrestin2 Ymax (%)” value [1] of the same compound?
Answer: 22.1%

Question: What about the EC50 [2] of the same compound?
Answer: > 100000 nM

Question: Which EC50 [1] does the source give for `CCc1nc2c(C)cc(C)nc2n1Cc1ccc(-c2cc(N3CC[C@H](C)C3)ccc2-c2nn[nH]n2)cc1` [Example 89] here?
Answer: 49.4 nM

Question: And the “DiscoveRx β-arrestin2 Ymax (%)” value [1]?
Answer: 22.5%

Question: What about the EC50 [2] of the same compound?
Answer: > 100000 nM

Question: How did the EC50 [1] turn out when `CCc1nc2c(C)cc(C)nc2n1Cc1ccc(-c2cc(N3CCCCCC3)ccc2-c2nn[nH]n2)cc1` [Example 95, 3-((5′-(azepan-1-yl)-2′-(2H-tetrazol-5-yl)-[1,1′-biphenyl]-4-yl)methyl)-2-ethyl-5,7-dimethyl-3H-imidazo[4,5-b]pyridine] was run?
Answer: 137 nM

Question: And the “DiscoveRx β-arrestin2 Ymax (%)” value [1]?
Answer: 21.0%

Question: And the “IP-1 Ymax (%)” value [2]?
Answer: 6.3%

Question: And the EC50 [2]?
Answer: 249 nM

Question: How did the EC50 [1] turn out when `CCCCC1=NC2(CCCC2)C(=O)N1Cc1ccc(-c2cc(N3CCC(C)(C)CC3)ccc2-c2nn[nH]n2)cc1` [Example 101] was run?
Answer: 30 nM

Question: And the “DiscoveRx β-arrestin2 Ymax (%)” value [1]?
Answer: 21.4%

Question: What about the EC50 [2] of the same compound?
Answer: > 100000 nM

Question: What does the source list for `CCCCC1=NC2(CCCC2)C(=O)N1Cc1ccc(-c2cc(N3CCC(C)C3)ccc2-c2nn[nH]n2)cc1` (centres unmarked) [Example 103]?
Answer: EC50 [1]: 112 nM; DiscoveRx β-arrestin2 Ymax (%) [1]: 8.8%; EC50 [2]: > 100000 nM

Question: What does the source list for `CCCCC1=NC2(CCCC2)C(=O)N1Cc1ccc(-c2cc(N3CC4(CC4)c4ccccc43)ccc2-c2nn[nH]n2)cc1` [Example 108]?
Answer: EC50 [1]: 42.3 nM; DiscoveRx β-arrestin2 Ymax (%) [1]: 38.8%; IP-1 Ymax (%) [2]: 12.8%; EC50 [2]: 219 nM

Question: Which results are given for `CCCCC1=NC2(CCCC2)C(=O)N1Cc1ccc(-c2cc(-c3ccccn3)ccc2-c2nn[nH]n2)cc1` [Example 140]?
Answer: EC50 [1]: 9.7 nM; DiscoveRx β-arrestin2 Ymax (%) [1]: 22.1%; IP-1 Ymax (%) [2]: 4.5%; EC50 [2]: 26.1 nM

Question: Which EC50 [1] does the source give for `CCc1nc2c(C)cc(C)nc2n1Cc1ccc(-c2cc(-c3ccccc3)ccc2C(=O)O)nc1` [Example 201, 3-(5-((2-ethyl-5,7-dimethyl-3H-imidazo[4,5-b]pyridin-3-yl)methyl)pyridin-2-yl)biphenyl-4-carboxylic acid] here?
Answer: 348 nM

Question: What about the “DiscoveRx β-arrestin2 Ymax (%)” value [1] of the same compound?
Answer: 7.0%

Question: What about the “IP-1 Ymax (%)” value [2] of the same compound?
Answer: 5.6%

Question: And the EC50 [2]?
Answer: 454 nM
